Assay results as given in ChEMBL document CHEMBL1138525 (J Med Chem, 2009).
Activity calls are given as the source filed them. The calls are words filed in the database; no cut-off is given here.

Biological target: P2Y purinoceptor 2 (Homo sapiens, UniProt P41231)
Assay: Agonist activity at N-terminal HA epitope-tagged human P2Y2 receptor expressed in human 1321N1 cells assessed as increase in intracellular calcium level at 100 µM

Chain of P2Y purinoceptor 2 (P41231 whole entry): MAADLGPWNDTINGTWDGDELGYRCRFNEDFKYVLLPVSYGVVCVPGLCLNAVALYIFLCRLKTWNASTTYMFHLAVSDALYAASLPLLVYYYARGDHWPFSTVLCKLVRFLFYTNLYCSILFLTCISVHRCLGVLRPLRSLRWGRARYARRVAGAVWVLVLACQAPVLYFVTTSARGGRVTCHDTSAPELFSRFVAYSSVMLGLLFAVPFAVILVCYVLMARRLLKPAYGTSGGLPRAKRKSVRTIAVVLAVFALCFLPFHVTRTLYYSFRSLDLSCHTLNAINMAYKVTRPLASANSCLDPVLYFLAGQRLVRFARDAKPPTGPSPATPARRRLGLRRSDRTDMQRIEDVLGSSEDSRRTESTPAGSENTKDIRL

Structure (SMILES): C[N+](C)(C)CCOC(N)=O
- Activity: Active
